Experimental data as given in ChEMBL document CHEMBL1201862, “PubChem BioAssay data set” (2004).
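Results reflect a 48-hour exposure of cells in 96-well plates to compound at five concentrations. Abbreviation: GI50, concentration required for 50% inhibition of growth.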 Activity calls are given as the source filed them. Rule as the data show it: active = GI50 up to about 1.1 µM and inactive = higher.

Columns and labels:
Test in all cases: NCI anticancer screen, dose series, 48 h
HCT-116 = system: HCT-116
HCT-15 = system: HCT-15
HT-29 = system: HT-29
Hs-578T = system: Hs-578T
LOX IMVI = system: LOX IMVI
MOLT-4 = system: MOLT-4
Malme-3M = system: Malme-3M
NCI-H226 = system: NCI-H226
NCI-H460 = system: NCI-H460
OVCAR-4 = system: OVCAR-4
RPMI-8226 = system: RPMI-8226
RXF 393 = system: RXF 393
SK-MEL-28 = system: SK-MEL-28
SK-MEL-5 = system: SK-MEL-5
T47D = system: T47D
HOP-62 = system: HOP-62
IGROV-1 = system: IGROV-1
KM12 = system: KM12
NCI-H522 = system: NCI-H522

Row | SMILES | GI50 (HCT-116) | GI50 (HCT-15) | GI50 (HT-29) | GI50 (Hs-578T) | GI50 (LOX IMVI) | GI50 (MOLT-4) | GI50 (Malme-3M) | GI50 (NCI-H226) | GI50 (NCI-H460) | GI50 (OVCAR-4) | GI50 (RPMI-8226) | GI50 (RXF 393) | GI50 (SK-MEL-28) | GI50 (SK-MEL-5) | GI50 (T47D) | GI50 (HOP-62) | GI50 (IGROV-1) | GI50 (KM12) | GI50 (NCI-H522)
1 | CC(=O)c1cnc2oc3ccc(O)cc3c2c1-c1ccccc1 | 57.1 µM (inactive) | 58.1 µM | 95.5 µM (inactive) | 14.2 µM (inactive) | 99.1 µM (inactive) | 19.2 µM (inactive) | 15.5 µM (inactive) | 35.6 µM (inactive) | 33.5 µM (inactive) | 15 µM (inactive) | 18.8 µM (inactive) | 25.3 µM (inactive) | 17.5 µM (inactive) | 22.2 µM (inactive) | 10.8 µM (inactive) |  |  |  | 
2 | C/C(=N\NC(=S)Nc1ccc(C)cc1)c1nc2cccnc2[nH]1 | 1.6 µM (inactive) | 2.86 µM | 0.681 µM (active) | 10.8 µM (inactive) | 1.41 µM (inactive) | 1.27 µM (inactive) | 4.86 µM (inactive) | 1.78 µM (inactive) | 1.32 µM (inactive) | 0.25 µM (active) | 3.01 µM (inactive) |  | 2.86 µM (inactive) | 1.76 µM (inactive) | 0.406 µM (active) | 3.17 µM (inactive) | 2.31 µM (inactive) | 7.6 µM (inactive) | 0.986 µM (active)
3 | COc1ccc(-c2cc(-c3ccc(Nc4ccnc5cc(C(F)(F)F)ccc45)cc3)nc(N)c2C#N)c2ccccc12 | 97.9 µM (inactive) | > 100 µM |  | 65.2 µM (inactive) | 29.4 µM (inactive) | 53.3 µM (inactive) | > 100 µM (inactive) |  | > 100 µM (inactive) | > 100 µM (inactive) | > 100 µM (inactive) | > 100 µM (inactive) |  | > 100 µM (inactive) | > 100 µM (inactive) | > 100 µM (inactive) |  | 68.5 µM (inactive) | 
4 | CCN1C(NCCO)=NS(=O)(=O)c2ccccc21 | > 100 µM (inactive) | > 100 µM | > 100 µM (inactive) | > 100 µM (inactive) | > 100 µM (inactive) | > 100 µM (inactive) |  | > 100 µM (inactive) | > 100 µM (inactive) | > 100 µM (inactive) |  | > 100 µM (inactive) | > 100 µM (inactive) | > 100 µM (inactive) | > 100 µM (inactive) | > 100 µM (inactive) | > 100 µM (inactive) | > 100 µM (inactive) | > 100 µM (inactive)
5 | O=C1CCCc2cc3c(cc21)CC1(Cc2ccccc2C1)C3 | 3.9 µM (inactive) | 3.59 µM | 2.8 µM (inactive) | 7.59 µM (inactive) | 6.53 µM (inactive) | 3.52 µM (inactive) | 9.79 µM (inactive) | 2.03 µM (inactive) |  | 6.31 µM (inactive) | 4.35 µM (inactive) | 8.83 µM (inactive) |  | 4.89 µM (inactive) | 5.24 µM (inactive) | 6.04 µM (inactive) | 7.43 µM (inactive) | 2.5 µM (inactive) | 3.94 µM (inactive)
6 | Nc1nc(N)c(C2=CCNCC2)c(=O)[nH]1 | > 100 µM (inactive) | > 100 µM | > 100 µM (inactive) | > 100 µM (inactive) |  | > 100 µM (inactive) | > 100 µM (inactive) | > 100 µM (inactive) | > 100 µM (inactive) | > 100 µM (inactive) | > 100 µM (inactive) | > 100 µM (inactive) | > 100 µM (inactive) | > 100 µM (inactive) | > 100 µM (inactive) | > 100 µM (inactive) | > 100 µM (inactive) | > 100 µM (inactive) | > 100 µM (inactive)
7 | OC(CCN1CCN(CCOC(c2ccccc2)c2ccccc2)CC1)c1ccccc1 (stereo unspecified) | 17.5 µM (inactive) | 18.5 µM | 15.9 µM (inactive) | 21.1 µM (inactive) | 19 µM (inactive) |  | 17.5 µM (inactive) | 27.9 µM (inactive) | 18.6 µM (inactive) | 30.1 µM (inactive) |  | 19.9 µM (inactive) | 17.9 µM (inactive) | 15.3 µM (inactive) | 17.2 µM (inactive) | 20.5 µM (inactive) | 23.1 µM (inactive) | 20.9 µM (inactive) | 17.4 µM (inactive)
8 | CN(C)/C=C/c1nnc([N+](=O)[O-])s1 | 5.94 µM (inactive) | 12 µM | 3.57 µM (inactive) | 14.5 µM (inactive) | 2.69 µM (inactive) |  | 4.22 µM (inactive) | 20.5 µM (inactive) | 11.6 µM (inactive) |  | < 0.01 µM (active) | 14.7 µM (inactive) |  | 12 µM (inactive) | 15.3 µM (inactive) | 22.8 µM (inactive) |  | 7.73 µM (inactive) | 1.66 µM (inactive)
9 | CC1=NN(c2nc(N)nc(CCl)n2)CC1 | 24.5 µM (inactive) | 17.3 µM | 30.4 µM (inactive) | 26.3 µM (inactive) |  | 19.7 µM (inactive) |  | 30.5 µM (inactive) | 20.9 µM (inactive) | 16.8 µM (inactive) | 38.9 µM (inactive) | 49.8 µM (inactive) | 22.8 µM (inactive) | 14.8 µM (inactive) | 74.8 µM (inactive) | 11.4 µM (inactive) | 7.14 µM (inactive) | 16.4 µM (inactive) | 1.96 µM (inactive)
10 | Cc1ccc(S(=O)(=O)N2CCSCCN(S(=O)(=O)c3ccc(C)cc3)CCN(S(=O)(=O)c3ccc(C)cc3)CC2)cc1 | 78.5 µM (inactive) |  | > 100 µM (inactive) | 25.7 µM (inactive) |  | > 100 µM (inactive) |  | > 100 µM (inactive) | > 100 µM (inactive) | > 100 µM (inactive) | > 100 µM (inactive) | 27.9 µM (inactive) | > 100 µM (inactive) | > 100 µM (inactive) | 8.75 µM (inactive) | 20.7 µM (inactive) | 56.2 µM (inactive) |  | 
11 | CC1=C[C@@H]2Cc3nc4cc(Cl)ccc4c(N)c3[C@H](C1)C2 | 2.96 µM (inactive) | 7 µM | 2.68 µM (inactive) | 2.42 µM (inactive) | 5.38 µM (inactive) | 2.07 µM (inactive) | 12 µM (inactive) | 8.38 µM (inactive) | 9.02 µM (inactive) | 3.99 µM (inactive) | 3.66 µM (inactive) | 5.42 µM (inactive) | 12.3 µM (inactive) | 2.84 µM (inactive) | 12.3 µM (inactive) | 11.2 µM (inactive) | 1.76 µM (inactive) | 7.6 µM (inactive) | 
12 | COC1CCC(=O)N1CN(C(C)=O)c1ccc(C)cc1 (stereo unspecified) | > 100 µM (inactive) | > 100 µM | > 100 µM (inactive) | > 100 µM (inactive) | > 100 µM (inactive) | > 100 µM (inactive) |  | > 100 µM (inactive) | > 100 µM (inactive) | > 100 µM (inactive) | > 100 µM (inactive) | > 100 µM (inactive) | > 100 µM (inactive) | > 100 µM (inactive) | > 100 µM (inactive) | > 100 µM (inactive) |  | > 100 µM (inactive) | 
13 | C(#CP(c1ccccc1)c1ccccc1)P(C#CP(c1ccccc1)c1ccccc1)c1ccccc1 | > 100 µM (inactive) | > 100 µM | > 100 µM (inactive) | > 100 µM (inactive) |  | > 100 µM (inactive) | > 100 µM (inactive) | > 100 µM (inactive) | > 100 µM (inactive) | > 100 µM (inactive) | > 100 µM (inactive) | > 100 µM (inactive) | > 100 µM (inactive) | > 100 µM (inactive) | > 100 µM (inactive) | > 100 µM (inactive) | > 100 µM (inactive) | > 100 µM (inactive) | > 100 µM (inactive)
14 | C=C1C(C[C@@H]2O[C@H]3C[C@H]4O[C@@]5(C[C@@H]6O[C@]7(C[C@H](C)[C@@H]8O[C@@H]9CC(C(O)CO)O[C@@H]9C[C@@H]8O7)C[C@H](C)[C@@H]6O5)C[C@H]4O[C@H]3[C@H](C)[C@H]2O)O[C@@H](CC[C@@H]2O[C@@H](CC[C@@]34CC5O[C@H]6C(O[C@H]7CC[C@H](CC(=O)OC)O[C@@H]7[C@@H]6O3)[C@H]5O4)CC2=C)C[C@H]1C (stereo partly specified) | < 0.0001 µM (active) | 0.000258 µM |  | < 0.0001 µM (active) | < 0.0001 µM (active) | 0.000146 µM (active) |  | 0.000174 µM (active) | < 0.0001 µM (active) | 0.998 µM (active) | < 0.0001 µM (active) | < 0.0001 µM (active) |  | < 0.0001 µM (active) | 0.01 µM (active) | 0.000396 µM (active) | < 0.0001 µM (active) | < 0.0001 µM (active) | < 0.0001 µM (active)
15 | O=C1Nc2ccc(Br)cc2/C1=N/NC(=S)Nc1ccc(F)cc1 | 3.87 µM (inactive) | 1.37 µM | 5.38 µM (inactive) | 12 µM (inactive) | 4.7 µM (inactive) | 2.58 µM (inactive) | 4.95 µM (inactive) | 9.84 µM (inactive) | 1.59 µM (inactive) | 7.24 µM (inactive) |  | 1.76 µM (inactive) | 3.94 µM (inactive) | 3.67 µM (inactive) | 4.9 µM (inactive) | 8.07 µM (inactive) | 0.948 µM (active) | 5.11 µM (inactive) | 10.5 µM (inactive)
16 | COc1cc(/C=C/C(=O)O)ccc1O [FERULATE] | > 100 µM (inactive) | > 100 µM | > 100 µM (inactive) | > 100 µM (inactive) | > 100 µM (inactive) | > 100 µM (inactive) | > 100 µM (inactive) | > 100 µM (inactive) | > 100 µM (inactive) | > 100 µM (inactive) | > 100 µM (inactive) |  | > 100 µM (inactive) | > 100 µM (inactive) | > 100 µM (inactive) | > 100 µM (inactive) | > 100 µM (inactive) | > 100 µM (inactive) | > 100 µM (inactive)
